Patent US8883782B2, “Spiro-tetracyclic ring compounds as beta-secretase modulators and methods of use” (Amgen Inc., priority 2010, dated 2014)
Read-outs that look alike come from different tables or passages of the source.

Experiments:
[1] = test system: Aβ40 in conditioned medium of cells stably expressing Amyloid Precursor Protein (APP); assay: In vitro BACE cell-based assay (Aβ40 in conditioned medium, sandwich ELISA); settings: Homo sapiens, read-out: HEK cell assay
How it was run: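 Conditioned medium from stably APP-expressing cells treated with compound dose series is assayed for Aβ40 by sandwich ELISA with time-resolved fluorescence detection. IC50 is calculated from percent inhibition of Aβ40 against compound concentration.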

[2] = target: Beta Secretase enzyme (BACE) (Homo sapiens, UniProt P56817); assay: In vitro enzymatic BACE FRET (fluorescence resonance energy transfer) assay; assay type: biochemical; settings: average IC50, enzyme assay; read-out: BACE 1 FRET assay
How it was run: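 Enzyme activity was measured at pH 4.2 (0.05 M acetate, 10% DMSO final, 100 uM genapol) by cleavage of a 50 nM quenched fluorogenic peptide. After one hour, Tris was added to neutralise the pH and fluorescence was recorded.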

[3] = HEK293, average IC50, HEK cells

Chain of Beta Secretase enzyme (BACE) (P56817 46-501, species assumed): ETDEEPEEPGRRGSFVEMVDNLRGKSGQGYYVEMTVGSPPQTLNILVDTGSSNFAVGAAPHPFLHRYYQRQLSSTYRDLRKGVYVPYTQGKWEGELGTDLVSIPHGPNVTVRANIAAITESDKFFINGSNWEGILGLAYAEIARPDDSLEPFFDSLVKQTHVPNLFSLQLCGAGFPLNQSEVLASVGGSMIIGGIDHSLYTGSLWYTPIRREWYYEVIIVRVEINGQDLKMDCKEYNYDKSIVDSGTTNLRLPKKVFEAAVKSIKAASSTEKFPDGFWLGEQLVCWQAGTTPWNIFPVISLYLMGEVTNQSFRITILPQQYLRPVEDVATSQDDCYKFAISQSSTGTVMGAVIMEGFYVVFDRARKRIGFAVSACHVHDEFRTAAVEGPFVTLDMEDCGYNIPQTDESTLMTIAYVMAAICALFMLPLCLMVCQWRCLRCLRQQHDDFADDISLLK

IC50 ([1]; HEK293, average IC50) [µM]	IC50 [2] [µM]	IC50 [1, 3] [µM]	Structure (SMILES)
0.367	0.345		COc1cc(F)c2c(c1)[C@]1(COC(N)=N1)c1cc(-c3cncc(C(C)(F)F)c3)ccc1O2 [Example 1070, (4S)-7′-(5-(1,1-difluoroethyl)-3-pyridinyl)-4′-fluoro-2′-methoxyspiro[1,3-oxazole-4,9′-xanthen]-2-amine]
0.775	0.023		CC(C)(C)C#Cc1ccc2c(c1)[C@@]1(COC(N)=N1)c1cc(-c3ccnc(F)c3)ncc1O2 [Example 162, (5S)-7-(3,3-dimethyl-1-butyn-1-yl)-3-(2-fluoro-4-pyridinyl)spiro[chromeno[2,3-c]pyridine-5,4′-[1,3]oxazol]-2′-amine]
1.81	0.367		COC(C)(C)COc1cnc2c(c1)[C@@]1(COC(N)=N1)c1cc(-c3cc(Cl)ccc3F)ccc1O2 [Example 318, (5R)-7-(5-chloro-2-fluorophenyl)-3-(2-methoxy-2-methylpropoxy)spiro[chromeno[2,3-b]pyridine-5,4′-[1,3]oxazol]-2′-amine]
0.002	0.0004		C=Cc1cc2c(c(F)n1)Oc1ccc(-c3cncc(F)c3)cc1C21COC(N)=N1 (stereo not shown) [Example 848, 3-ethenyl-1-fluoro-7-(5-fluoro-3-pyridinyl)spiro[chromeno[2,3-c]pyridine-5,4′-[1,3]oxazol]-2′-amine]
	0.0044	0.0449	NC1=N[C@@]2(CO1)c1cc(-c3cccnc3F)ccc1Oc1cnc(/C=C/C3CC3)cc12 [Example 401, (5S)-3-((E)-2-cyclopropylethenyl)-7-(2-fluoro-3-pyridinyl)spiro[chromeno[2,3-c]pyridine-5,4′-[1,3]oxazol]-2′-amine]
0.0149	0.0008		CC(C)(C)/C=C/c1cc2c(cn1)Oc1ccc(-c3cncc(F)c3)cc1[C@@]21COC(N)=N1 [Example 372, (5S)-3-((1E)-3,3-dimethyl-1-buten-1-yl)-7-(5-fluoro-3-pyridinyl)spiro[chromeno[2,3-c]pyridine-5,4′-[1,3]oxazol]-2′-amine]
	0.0006	0.0069	NC1=N[C@@]2(CO1)c1cc(-c3cccnc3F)ccc1Oc1cnc(N3CCCC(F)(F)C3)cc12 [Example 430, (5S)-3-(3,3-difluoro-1-piperidinyl)-7-(2-fluoro-3-pyridinyl)spiro[chromeno[2,3-c]pyridine-5,4′-[1,3]oxazol]-2′-amine]
	0.003	0.0317	CC(C)(C)/C=C/c1cc2c(cn1)Oc1ccc(-c3ccc(F)nc3)cc1[C@@]21COC(N)=N1 [Example 434, (5S)-3-((1E)-3,3-dimethyl-1-buten-1-yl)-7-(6-fluoro-3-pyridinyl)spiro[chromeno[2,3-c]pyridine-5,4′-[1,3]oxazol]-2′-amine]
	0.0004	0.0123	NC1=N[C@@]2(CO1)c1cc(-c3cccnc3F)ccc1Oc1cnc(-c3cc(F)nc(F)c3)cc12 [Example 541, (5S)-3-(2,6-difluoro-4-pyridinyl)-7-(2-fluoro-3-pyridinyl)spiro[chromeno[2,3-c]pyridine-5,4′-[1,3]oxazol]-2′-amine]
	0.0104	0.066	N#Cc1ccncc1-c1ccc2c(c1)[C@@]1(COC(N)=N1)c1cc(C3=CCOCC3)ncc1O2 [Example 656, 3-((5S)-2′-amino-3-(3,6-dihydro-2H-pyran-4-yl)spiro[chromeno[2,3-c]pyridine-5,4′-[1,3]oxazol]-7-yl)-4-pyridinecarbonitrile]

The remaining lines, values behind:

Structure (SMILES)	IC50 ([1]; HEK293, average IC50) [µM]	IC50 [2] [µM]	IC50 [1, 3] [µM]
NC1=N[C@@]2(CO1)c1cc(-c3cccnc3F)ccc1Oc1c(F)cc(C3=CCOC3)cc12 [Example 291, (4S)-2′-(2,5-dihydro-3-furanyl)-4′-fluoro-7′-(2-fluoro-3-pyridinyl)spiro[1,3-oxazole-4,9′-xanthen]-2-amine]	0.008	0.0006	
CC#Cc1cncc(-c2ccc3c(c2)[C@@]2(COC(N)=N2)c2cc(Cl)nc(F)c2O3)c1 [Example 761, (5S)-3-chloro-1-fluoro-7-(5-(1-propyn-1-yl)-3-pyridinyl)spiro[chromeno[2,3-c]pyridine-5,4′-[1,3]oxazol]-2′-amine]	0.185	0.0009	
NC1=N[C@@]2(CO1)c1cc(-c3cncc(F)c3)ccc1Oc1c2cc(N2CC[C@@H](F)C2)nc1F [Example 921, (5S)-1-fluoro-7-(5-fluoro-3-pyridinyl)-3-((3R)-3-fluoro-1-pyrrolidinyl)spiro[chromeno[2,3-c]pyridine-5,4′-[1,3]oxazol]-2′-amine]		0.0005	0.006
Cc1ccc(-c2cc(F)c3c(c2)[C@]2(CSC(N)=N2)c2cc(-c4cccnc4F)ccc2O3)cn1 [Example 1086, (4S)-4′-fluoro-7′-(2-fluoro-3-pyridinyl)-2′-(6-methyl-3-pyridinyl)spiro[1,3-thiazole-4,9′-xanthen]-2-amine]	1.37	0.067	
COc1cc(F)c2c(c1)[C@]1(COC(N)=N1)c1cc(-c3cncc(C(F)(F)F)c3)ccc1O2 [Example 1073, (4S)-4′-fluoro-2′-methoxy-7′-(5-(trifluoromethyl)-3-pyridinyl)spiro[1,3-oxazole-4,9′-xanthen]-2-amine]	0.194	0.0614	
NC1=N[C@@]2(CS1)c1cc(-c3cccnc3F)ccc1Oc1ncc(-c3cccnc3)cc12 [Example 765, (5S)-7-(2-fluoro-3-pyridinyl)-3-(3-pyridinyl)spiro[chromeno[2,3-b]pyridine-5,4′-[1,3]thiazol]-2′-amine]	0.008	0.001	
NC1=N[C@@]2(CO1)c1cc(OCc3ccncc3)ccc1Oc1ncc(C3=CCOCC3)cc12 [Example 970, (5S)-3-(3,6-dihydro-2H-pyran-4-yl)-7-(4-pyridinylmethoxy)spiro[chromeno[2,3-b]pyridine-5,4′-[1,3]oxazol]-2′-amine]		0.112	0.455
Cc1noc(C)c1-c1cccc(-c2ccc3c(c2)[C@@]2(COC(N)=N2)c2cc(C4=CCOCC4)ncc2O3)c1 [Example 245, (5S)-3-(3,6-dihydro-2H-pyran-4-yl)-7-(3-(3,5-dimethyl-4-isoxazolyl)phenyl)spiro[chromeno[2,3-c]pyridine-5,4′-[1,3]oxazol]-2′-amine]	0.529	0.023	
Cc1ccc(-c2cnc3c(c2)[C@]2(COC(N)=N2)c2cc(OCc4cccnc4)ccc2O3)cn1 [Example 977, (5S)-3-(6-methyl-3-pyridinyl)-7-(3-pyridinylmethoxy)spiro[chromeno[2,3-b]pyridine-5,4′-[1,3]oxazol]-2′-amine]	0.43	0.0519	
CC#Cc1cncc(-c2cnc3c(c2)[C@]2(COC(N)=N2)c2cc(-c4cccnc4F)ccc2O3)c1 [Example 777, (5S)-7-(2-fluoro-3-pyridinyl)-3-(5-(1-propyn-1-yl)-3-pyridinyl)spiro[chromeno[2,3-b]pyridine-5,4′-[1,3]oxazol]-2′-amine]	3.51	0.106	
C[C@@H]1CN(c2cc(F)c3c(c2)[C@]2(COC(N)=N2)c2cc(-c4cncc(C#N)c4)ccc2O3)C[C@H](C)O1 [Example 560, 5-((4S)-2-amino-7′-((2R,6S)-2,6-dimethyl-4-morpholinyl)-5′-fluorospiro[1,3-oxazole-4,9′-xanthen]-2′-yl)-3-pyridinecarbonitrile]		0.0028	0.0142
CC1(C#Cc2cnc3c(c2)C2(CSC(N)=N2)c2cc(-c4cccnc4F)ccc2O3)COC1 (stereo not shown) [Example 98]		0.002	0.0046
NC1=N[C@]2(CS1)c1cc(Br)ccc1Oc1cnc(Cl)cc12 [Example 993, (5R)-7-bromo-3-chlorospiro[chromeno[2,3-c]pyridine-5,4′-[1,3]thiazol]-2′-amine]	≥ 10	11.6	
Cn1cc(-c2cc(F)c3c(c2)[C@]2(COC(N)=N2)c2cc(-c4cccc(C#N)c4)ccc2O3)cn1 [Example 563, 3-((4S)-2-amino-5′-fluoro-7′-(1-methyl-1H-pyrazol-4-yl)spiro[1,3-oxazole-4,9′-xanthen]-2′-yl)benzonitrile]		0.0013	0.0124
NC1=N[C@@]2(CS1)c1cc(-c3c(F)ccnc3F)ccc1Oc1cnc(-c3ccnc(F)c3)cc12 [Example 1023, (5S)-7-(2,4-difluoro-3-pyridinyl)-3-(2-fluoro-4-pyridinyl)spiro[chromeno[2,3-c]pyridine-5,4′-[1,3]thiazol]-2′-amine]	0.018	0.0004	
CC(C)(C)COc1ccc2c(c1)[C@@]1(COC(N)=N1)c1cc(C3=CC(C)(C)OCC3)cnc1O2 [Example 506, (5S)-3-(6,6-dimethyl-3,6-dihydro-2H-pyran-4-yl)-7-(2,2-dimethylpropoxy)spiro[chromeno[2,3-b]pyridine-5,4′-[1,3]oxazol]-2′-amine]		0.0057	0.0361
CC(C)(C)COc1ccc2c(c1)C1(COC(N)=N1)c1cc(C3CCCOC3)ccc1O2 [Example 911, (4S)-2′-(2,2-dimethylpropoxy)-7′-((3R)-tetrahydro-2H-pyran-3-yl)spiro[1,3-oxazole-4,9′-xanthen]-2-amine, (4S)-2′-(2,2-dimethylpropoxy)-7′-((3S)-tetrahydro-2H-pyran-3-yl)spiro[1,3-oxazole-4,9′-xanthen]-2-amine]		0.0192	1.29
CC1(C)CC(c2cnc3c(c2)[C@]2(COC(N)=N2)c2c(ccc(-c4cccnc4F)c2F)O3)=CCO1 [Example 349, (5R)-3-(2,2-dimethyl-3,6-dihydro-2H-pyran-4-yl)-6-fluoro-7-(2-fluoro-3-pyridinyl)spiro[chromeno[2,3-b]pyridine-5,4′-[1,3]oxazol]-2′-amine]	0.008	0.0007	
COc1ccc2c(c1)[C@@]1(COC(N)=N1)c1cc(-n3nccc3C)cc(F)c1O2 [Example 663, (4S)-4′-fluoro-7′-methoxy-2′-(5-methyl-1H-pyrazol-1-yl)spiro[1,3-oxazole-4,9′-xanthen]-2-amine]		0.43	8.52
